These results are taken from US20230293535A1, “ERBB/BTK INHIBITORS” (Dizal (Jiangsu) Pharmaceutical Co., Ltd., priority 2018, published 2023).

Assay [1] addresses T1, human EGFR exon 20 H773_V774insNPH (Homo sapiens, UniProt P00533, INS773NPH).
T1 construct: host or cells: Ba/F3
The experiment in a line: EGFR Exon20 NPH insertion cellular phosphorylation inhibition (MSD pEGFR Y1068/total EGFR).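 Also: IL3-independent Ba/F3 cells with constitutively phosphorylated EGFR, compound exposure at 37 °C under 5% CO2, electrochemiluminescent MSD measurement of the p-EGFR to total EGFR ratio.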 The note with it: Ba/F3 EGFR NPH ins cells, 4 h compound, p-EGFR(Y1068)/total EGFR. Type of assay: cell-based.

Assay [2] concerns the target T2, human EGFR exon 20 V769_D770insASV (Homo sapiens, UniProt P00533, INS769ASV).
T2 construct: expressed in transfected cells; host or cells: Ba/F3 (DSMZ ACC-300), lentiviral transduction, puromycin selection, IL3 depletion
The experiment in a line: EGFR Exon20 ASV insertion cellular phosphorylation inhibition (MSD pEGFR Y1068/total EGFR).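 Also: electrochemiluminescent readout on an MSD SECTOR Imager, IL3-independent transduced cells in medium with 1% FBS, compound concentration series at 37 °C and 5% CO2.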 The settings on record: Ba/F3 EGFR ASV ins cells, 4 h compound, p-EGFR(Y1068)/total EGFR. It is filed as cell-based.

The target of another assay is T3, EGFR L858R&T790M (Homo sapiens, UniProt P00533, L858R/T790M).
T3 construct: host or cells: NCI-H1975
T3 sequence (P00533 25-1210 T790M/L858R): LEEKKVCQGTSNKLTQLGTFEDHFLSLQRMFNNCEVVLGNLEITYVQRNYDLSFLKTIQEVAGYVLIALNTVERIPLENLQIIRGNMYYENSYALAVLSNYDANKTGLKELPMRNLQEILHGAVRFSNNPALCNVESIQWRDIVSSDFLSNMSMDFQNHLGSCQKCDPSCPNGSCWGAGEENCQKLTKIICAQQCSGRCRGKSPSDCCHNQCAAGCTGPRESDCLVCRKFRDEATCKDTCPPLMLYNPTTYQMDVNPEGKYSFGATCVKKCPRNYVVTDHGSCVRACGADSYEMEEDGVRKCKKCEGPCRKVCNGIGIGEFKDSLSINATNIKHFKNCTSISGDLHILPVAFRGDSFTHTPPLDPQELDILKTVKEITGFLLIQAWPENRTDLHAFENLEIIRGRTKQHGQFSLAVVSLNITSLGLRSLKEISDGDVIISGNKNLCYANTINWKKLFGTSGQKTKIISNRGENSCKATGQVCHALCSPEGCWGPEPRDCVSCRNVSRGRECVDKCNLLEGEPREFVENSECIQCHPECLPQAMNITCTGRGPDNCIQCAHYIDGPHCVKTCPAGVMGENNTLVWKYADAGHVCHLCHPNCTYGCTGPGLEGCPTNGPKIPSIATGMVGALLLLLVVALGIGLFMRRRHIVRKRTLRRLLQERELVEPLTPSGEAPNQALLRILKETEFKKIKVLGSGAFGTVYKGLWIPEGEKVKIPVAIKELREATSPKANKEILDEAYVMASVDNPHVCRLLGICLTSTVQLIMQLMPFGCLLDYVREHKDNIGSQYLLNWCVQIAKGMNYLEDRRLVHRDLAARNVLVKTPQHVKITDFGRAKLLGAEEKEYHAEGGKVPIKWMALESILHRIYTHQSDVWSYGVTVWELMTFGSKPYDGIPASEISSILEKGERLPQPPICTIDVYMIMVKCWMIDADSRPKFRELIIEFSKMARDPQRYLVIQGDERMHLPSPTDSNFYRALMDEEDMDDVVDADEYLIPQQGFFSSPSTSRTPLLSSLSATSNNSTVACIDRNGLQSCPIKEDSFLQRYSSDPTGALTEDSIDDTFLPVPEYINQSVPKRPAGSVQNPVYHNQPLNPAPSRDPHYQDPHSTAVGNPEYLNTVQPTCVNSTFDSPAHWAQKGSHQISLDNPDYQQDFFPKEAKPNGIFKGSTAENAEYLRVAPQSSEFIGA
As to the kind of experiment: EGFR L858R and T790M cellular phosphorylation inhibition in NCI-H1975 (MSD).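 Also: phosphorylated and total EGFR detected by electrochemiluminescence, cells exposed to compound in medium containing 1% FBS at 37 °C.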 Type of assay: cell-based. The note with it: NCI-H1975 cells, 4 h compound, p-EGFR(Y1068)/total EGFR; read-out: EGFR L858R and T790M mutation IC50.

A further assay addresses T4, WT EGFR (Homo sapiens, UniProt P00533).
T4 construct: host or cells: A-431
As to the kind of experiment: WT EGFR cellular phosphorylation inhibition in A-431 (hEGF stimulated, MSD).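 Also: electrochemiluminescence read-out of EGFR Tyr1068 phosphorylation expressed as ratio to total EGFR, cells kept in medium with 1% FBS, compounds tested as a concentration series.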 It is filed as cell-based. The settings on record: A431 cells, 4 h compound, then 100 ng/ml hEGF 10 min.

Another assay deals with Ba/F3 EGFR ASV ins cells. The experiment in a line: Cell proliferation, Ba/F3 EGFR ASV ins (CellTiter-Glo, 72 h).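 Also: IL3-independent Ba/F3 cells transduced with EGFR V769_D770insASV, cellular ATP luminescence after compound exposure, growth relative to DMSO control with the day-0 baseline reading subtracted.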 Type of assay: cell-based. The settings on record: Ba/F3 EGFR, 72 h, Ba/F3 EGFR ASV ins, 72 h proliferation; read-out: EGFR Exon20 ASV insertion GI50. (In general: In ATP-based viability assays light output follows the ATP content of the culture.)
The test system of another assay is TMD-8 cells. As to the kind of experiment: BTK (wt) cell proliferation, TMD-8 (CellTiter-Glo, 72 h).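 Also: viable cells quantified by ATP-based luminescence, proliferation expressed as percent of DMSO control after subtracting a time-zero baseline plate read at dosing.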 It is filed as cell-based. The settings on record: Homo sapiens, TMD8, 72 h, TMD-8 cells, 72 h, CellTiter-Glo; read-out: BTK WT TMD-8 GI50.
The test system of a further assay is Ri-1 cells. As to the kind of experiment: BTK (wt) cell proliferation, Ri-1 (CellTiter-Glo, 72 h).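 Also: viable cells quantified as cellular ATP luminescence, proliferation normalized to a time-zero plate and the DMSO control, compounds tested across a dilution series.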 Type of assay: cell-based. The settings on record: Ri-1, 72 h, Ri-1 cells, 72 h, CellTiter-Glo; read-out: BTK WT Ri-1 GI50.
The subject of a further assay is DB cells. As to the kind of experiment: BTK (wt) cell proliferation, DB (CellTiter-Glo, 72 h).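 Also: DB cells in 384-well plates given a dilution series of compound, viable cells read by ATP luminescence, growth expressed versus DMSO control after subtracting a time-zero plate reading.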 The settings on record: Homo sapiens, DB, DB cells, CellTiter-Glo, read-out: Non-BCR activated DB GI50. It is filed as cell-based.
Assay [3] has as its system NSCLC with EGFR Exon20ins. As to the kind of experiment: Anti-tumor activity in platinum-pretreated NSCLC patients with EGFR Exon20 insertion mutations. It is filed as in vivo, human.
Another assay has as its target BTK (Homo sapiens, UniProt Q06187). As to the kind of experiment: BTK target site occupancy ELISA (Ramos). It is filed as cell-based. More on the design: endogenous in cells; host or cells: Ramos. The settings on record: BTK receptor occupancy, read-out: Occupancy (Romas) IC50. For orientation: In an ELISA, binding on a coated surface is turned into a signal by an enzyme label.

T2 sequence (P00533 with tags, fused parts or gaps INS769ASV): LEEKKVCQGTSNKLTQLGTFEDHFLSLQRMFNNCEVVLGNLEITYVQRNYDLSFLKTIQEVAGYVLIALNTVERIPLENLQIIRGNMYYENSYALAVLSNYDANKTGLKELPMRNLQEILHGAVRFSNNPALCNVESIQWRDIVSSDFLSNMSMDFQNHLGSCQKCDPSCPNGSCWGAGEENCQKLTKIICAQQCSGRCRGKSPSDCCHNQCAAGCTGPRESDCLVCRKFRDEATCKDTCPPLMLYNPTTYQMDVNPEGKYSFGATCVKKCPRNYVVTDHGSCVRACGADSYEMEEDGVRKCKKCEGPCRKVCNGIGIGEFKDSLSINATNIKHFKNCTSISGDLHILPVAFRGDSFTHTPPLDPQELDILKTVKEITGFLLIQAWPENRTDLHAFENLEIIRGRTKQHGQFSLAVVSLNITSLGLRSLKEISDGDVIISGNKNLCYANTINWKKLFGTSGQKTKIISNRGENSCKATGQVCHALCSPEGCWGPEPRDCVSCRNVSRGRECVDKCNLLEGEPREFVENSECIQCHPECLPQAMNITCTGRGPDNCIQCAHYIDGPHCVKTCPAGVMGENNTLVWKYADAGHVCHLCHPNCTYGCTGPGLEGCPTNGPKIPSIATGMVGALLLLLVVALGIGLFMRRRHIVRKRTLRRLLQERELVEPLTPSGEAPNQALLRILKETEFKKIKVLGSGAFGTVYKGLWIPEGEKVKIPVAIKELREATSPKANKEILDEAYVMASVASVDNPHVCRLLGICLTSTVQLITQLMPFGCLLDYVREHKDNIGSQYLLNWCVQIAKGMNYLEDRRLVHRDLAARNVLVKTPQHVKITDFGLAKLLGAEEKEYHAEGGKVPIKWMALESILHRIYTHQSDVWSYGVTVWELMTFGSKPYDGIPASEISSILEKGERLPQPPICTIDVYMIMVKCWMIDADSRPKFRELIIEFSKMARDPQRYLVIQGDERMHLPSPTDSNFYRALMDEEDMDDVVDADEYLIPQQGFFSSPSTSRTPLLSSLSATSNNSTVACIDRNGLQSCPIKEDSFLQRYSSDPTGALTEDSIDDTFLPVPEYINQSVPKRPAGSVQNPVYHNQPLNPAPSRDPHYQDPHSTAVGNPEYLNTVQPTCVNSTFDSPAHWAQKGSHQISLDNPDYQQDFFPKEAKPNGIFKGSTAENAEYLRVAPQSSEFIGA
T1 sequence (P00533 with tags, fused parts or gaps INS773NPH): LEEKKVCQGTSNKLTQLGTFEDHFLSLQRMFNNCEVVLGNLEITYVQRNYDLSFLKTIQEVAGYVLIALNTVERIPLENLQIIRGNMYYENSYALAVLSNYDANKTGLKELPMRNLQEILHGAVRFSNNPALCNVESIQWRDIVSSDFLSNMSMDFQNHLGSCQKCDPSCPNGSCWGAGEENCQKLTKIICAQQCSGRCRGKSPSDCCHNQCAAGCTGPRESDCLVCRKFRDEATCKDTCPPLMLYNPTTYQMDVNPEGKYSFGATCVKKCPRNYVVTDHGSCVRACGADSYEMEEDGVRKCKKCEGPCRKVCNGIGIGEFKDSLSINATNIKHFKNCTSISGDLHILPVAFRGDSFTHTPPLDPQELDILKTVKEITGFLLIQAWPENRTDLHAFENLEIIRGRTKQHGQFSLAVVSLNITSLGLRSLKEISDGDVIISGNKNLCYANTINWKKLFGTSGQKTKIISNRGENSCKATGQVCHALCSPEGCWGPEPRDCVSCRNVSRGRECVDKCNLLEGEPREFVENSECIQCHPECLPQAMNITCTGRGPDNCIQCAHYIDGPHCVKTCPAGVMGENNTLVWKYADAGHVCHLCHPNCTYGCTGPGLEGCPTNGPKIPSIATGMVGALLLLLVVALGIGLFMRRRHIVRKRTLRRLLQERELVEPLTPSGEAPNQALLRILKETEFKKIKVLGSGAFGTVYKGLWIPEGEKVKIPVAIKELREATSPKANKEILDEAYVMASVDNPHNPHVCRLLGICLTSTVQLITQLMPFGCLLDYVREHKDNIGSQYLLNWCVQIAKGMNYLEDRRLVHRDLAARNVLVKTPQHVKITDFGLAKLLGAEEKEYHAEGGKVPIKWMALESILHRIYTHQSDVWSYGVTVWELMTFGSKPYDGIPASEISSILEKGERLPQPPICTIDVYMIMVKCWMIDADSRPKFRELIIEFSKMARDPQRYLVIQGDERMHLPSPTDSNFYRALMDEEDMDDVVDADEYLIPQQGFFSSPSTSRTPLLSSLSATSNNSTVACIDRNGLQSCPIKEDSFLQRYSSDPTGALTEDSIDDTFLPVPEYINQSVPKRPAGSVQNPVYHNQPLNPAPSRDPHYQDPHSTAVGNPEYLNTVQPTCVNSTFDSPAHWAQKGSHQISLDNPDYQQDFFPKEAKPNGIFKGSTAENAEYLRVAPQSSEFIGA
Sequence of BTK (Q06187 whole entry): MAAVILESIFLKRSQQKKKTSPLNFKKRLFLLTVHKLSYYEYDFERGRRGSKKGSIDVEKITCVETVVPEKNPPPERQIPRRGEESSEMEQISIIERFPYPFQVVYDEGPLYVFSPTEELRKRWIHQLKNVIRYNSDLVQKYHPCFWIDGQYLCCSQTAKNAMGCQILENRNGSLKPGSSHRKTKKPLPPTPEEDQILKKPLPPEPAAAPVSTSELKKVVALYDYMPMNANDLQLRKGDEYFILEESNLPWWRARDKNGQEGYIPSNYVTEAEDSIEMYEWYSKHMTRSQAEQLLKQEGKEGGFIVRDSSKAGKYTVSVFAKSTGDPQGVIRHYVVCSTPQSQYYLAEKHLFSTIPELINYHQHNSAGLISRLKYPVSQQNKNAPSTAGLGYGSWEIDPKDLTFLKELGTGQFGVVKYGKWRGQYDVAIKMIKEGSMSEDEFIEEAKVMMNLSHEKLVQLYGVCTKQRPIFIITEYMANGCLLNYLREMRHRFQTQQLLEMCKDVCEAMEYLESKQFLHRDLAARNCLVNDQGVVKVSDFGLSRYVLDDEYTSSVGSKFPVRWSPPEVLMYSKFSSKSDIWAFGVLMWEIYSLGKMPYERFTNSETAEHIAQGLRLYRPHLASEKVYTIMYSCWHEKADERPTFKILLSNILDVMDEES
Description for Ba/F3 EGFR ASV ins cells: WT or mutant cells were seeded in 384 well plates at appropriate concentrations with corresponding growth media supplemented with 10% FBS, for each experiment, identical plates were prepared in duplicates, and the plates were incubated overnight. On the next day, one of each duplicated plates was dosed with tested compounds at a series of concentrations, and another one of the duplicated plate was analysied for G0 value. The dosed plates were incubate for another 72 h at 37° C. with 5% CO2 and the number of viable cells in each well of the G0 plates or the dosed plates were measured by CellTiter-Glo® Luminescent Cell Viability Assay (Promega). This assay is a luminescent method for determining the number viable cells through measurement of cellular ATP concentration by detection of luciferase activity. Detection reagents (15 µl) was dispensed into per well, and the plates were incubate for 30 min at room temperature. Then, the luminescence in each well was measured using the Envision plate reader (PerkinElmer). The percentage of proliferation was calculated based on the formula: %Proliferation= 100 × (G3 value of sample well-Go value)/(G3 value of DMSO control-Go value).

Broadly, the IC50 is the concentration that inhibits the measured activity by half. The term GI50 denotes the concentration at which growth is held to half of that of the control. As to `C=CC(=O)Nc1cc(Nc2nccc(Nc3cc(Cl)c(F)cc3C(C)(C)O)n2)c(OC)cc1N1CC[C@@H](N(C)C)C1` [Compound 52, (R)-N-(5-(4-(5-chloro-4-fluoro-2-(2-hydroxypropan-2-yl)phenylamino)pyrimidin-2-ylamino)-2-(3-(dimethylamino)pyrrolidin-1-yl)-4-methoxyphenyl)a crylamide], the IC50 in [1] stood at 20.4 nM; in assay [2], 20.4 nM; at EGFR L858R&T790M, 1.1 nM; on WT EGFR it was 80.4 nM; on BTK it was 0.6 nM. The GI50 in the assay on Ba/F3 EGFR ASV ins cells turned out to be 83.2 nM; with TMD-8 cells it was 5.8 nM; with Ri-1 cells, 51.3 nM; in the assay on DB cells, 1980 nM. The “anti-tumor activity in earlier clinical studies” value in assay [3] is reported as “Significant anti-tumor activities”.
